Experimental data as given in patent publication US20110045522A1, “METHODS FOR DIAGNOSING DIABETES AND DETERMINING EFFECTIVENESS OF TREATMENTS” (priority 2009, published 2011).

What was measured:
[1] = test system: INS-1E cells; conditions: reported in the literature; positive control; cited from earlier work
[2] = test system: IL-1β; conditions: human OA cartilage and synovial tissue cultures; cited from earlier work
[3] = test system: IL-1 receptor antagonist (IL-1Ra); conditions: cartilage culture media; cited from earlier work
[4] = test system: IL-1Ra production in human kidney proximal tubular cell line (HK-2); assay: IL-1Ra production in HK-2 cell culture media, ELISA; type: cell-based; conditions: HK-2 cells; for concentration of IL-1Ra: FIG. 1B
Protocol: Human kidney proximal cell line is commercially available and may be purchased, for example, from American Type Culture Collection (ATCC) under the symbol HK-2.
The immortalized human kidney proximal tubular cell line (HK-2) was cultured in DMEM/F12 containing 2.50 g/l HEPES, 1.80 g/l sodium bicarbonate, 100 U/ml penicillin, […] streptomycin, and 10% FCS at 37° C. in 5% CO2. After being digested with 0.25% trypsin, 1×10^5 cells were grown in 50 ml plastic culture bottles. The cells were cultured overnight in DMEM/F12 5% FCS; then, media were changed to fresh DMEM/F12 5% FCS containing diacerin with various concentrations of 2.0 μg/ml, 2.5 μg/ml, 3.0 μg/ml, 5.0 μg/ml, 10 μg/ml, 20 μg/ml, and negative (5% FCS) controls. Cultures were continued for further time points of 0 hour, 0.5 hour, 1 hour, 3 hours, 5 hours, 8 hours, 16 hours, 32 hours, and 72 hours. Upon reaching each time point, the media were collected. The cell culture method is well explained in Yao, et al, Preventive Effects of Salvianolic Acid on Transforming Growth Factorb 1-Induced Epithelial-to-Mesenchymal Transition of Human Kidney Cells, Biol. Pharm. Bull. 2009, 32(5) 882-886.
The collected media at each time point and concentration were assayed for IL-1Ra concentrations using ELISA assays.

## Exendin-4: positive control, reported to inhibit IL-1β-induced INS-1E cell apoptosis
[1]
  IL-1β-induced INS-1E cell apoptosis: inhibit

## CC(=O)Oc1cccc2c1C(=O)c1c(OC(C)=O)cc(C(=O)O)cc1C2=O [diacerin, 4,5-bis(acetyloxy)-9,10-dioxo-2-anthracene carboxylic acid]
[2]
  IL-1β production: significantly inhibited
[3]
  IL-1Ra levels: increased
[4]; 5 μg/ml diacerin, 16 hours treatment
  concentration of IL-1Ra: approximately 0.8 pg/ml
[4]; 10 μg/ml diacerin, 16 hours treatment
  concentration of IL-1Ra: approximately 1.3 pg/ml
[4]; 20 μg/ml diacerin, 16 hours treatment
  concentration of IL-1Ra: approximately 4.2 pg/ml
[4]; 16 hours treatment
  concentration at which IL-1Ra production was first observed: 5 µg/mL
  effect on IL-1Ra production: dose-dependently increased
[4]; 32 hours treatment
  dose-dependent effect on production of IL-1Ra: diminished
[4]; 72 hours treatment
  dose-dependent effect on production of IL-1Ra: diminished

## O=C(O)c1cc(O)c2c(c1)C(=O)c1cccc(O)c1C2=O [rhein, 9,10-dihydro-4,5-dihydroxy-9,10-dioxo-2-anthracenecarboxylic acid]
[2]
  IL-1β production: significantly inhibited
[3]
  IL-1Ra levels: increased
